One data set deals with T1, Brd4 bromodomain 1 (Homo sapiens, UniProt O60885).
T1 construct: made in house; host or cells: E. coli BL21(DE3)
The data set can be described thus: Inhibition of tetra-acetylated histone H4 binding to BET bromodomains (TR-FRET). Also on record: key: Active: Compounds with an IC50 value less than 30 μM were deemed to be active.; Not Active: Compounds with an IC50 value less than 30 μM were deemed to be active. Conditions: first bromodomain of Brd4, tetra-acetylated histone H4 peptide. How it is done:
Proteins were cloned and overexpressed with a N-terminal 6×His tag, then purified by nickel affinity followed by size exclusion chromatography. Briefly, E. coli BL21(DE3) cells were transformed with a recombinant expression vector encoding N-terminally Nickel affinity tagged bromodomains from Brd2, Brd3, Brd4. Cell cultures were incubated at 37° C. with shaking to the appropriate density and induced overnight with IPTG. The supernatant of lysed cells was loaded onto Ni-IDA column for purification. Eluted protein was pooled, concentrated and further purified by size exclusion chromatography. Fractions representing monomeric protein were pooled, concentrated, aliquoted, and frozen at −80° C. for use in subsequent experiments.
Binding of tetra-acetylated histone H4 and BET bromodomains was confirmed by a Time Resolved Fluorescence Resonance Energy Transfer (TR-FRET) method. N-terminally His-tagged bromodomains (200 nM) and biotinylated tetra-acetylated histone H4 peptide (25-50 nM, Millipore) were incubated in the presence of Europium Cryptate-labeled streptavidin (Cisbio Cat. #610SAKLB) and XL665-labeled monoclonal anti-His antibody (Cisbio Cat. #61HISXLB) in a white 96 well microtiter plate (Greiner). For inhibition assays, serially diluted test compound was added to these reactions in a 0.2% final concentration of DMSO. Final buffer concentrations were 30 mM HEPES pH 7.4, 30 mM NaCl, 0.3 mM CHAPS, 20 mM phosphate pH 7.0, 320 mM KF, 0.08% BSA). After 2 hours incubation at room temperature, the fluorescence by FRET was measured at 665 and 620 nm by a SynergyH4 plate reader (Biotek). Illustrative results with the first bromodomain of Brd4 are shown below (Table 1). The binding inhibitory activity was shown by a decrease in 665 nm fluorescence relative to 620 nm. IC50 values were determined from a dose response curve.
For orientation: TR-FRET usually uses a lanthanide donor and a delayed reading to cut background.

For the next data set, the system named is c-myc. As to the kind of experiment: Inhibition of c-myc expression in cancer cell lines (mRNA, real-time PCR). It is filed as cell-based. Set-up: key: Active: Compounds with an IC50 value less than 30 μM were deemed to be active. Conditions: Human AML MV4-11 cells, 3 hours. How it is done: MV4-11 cells (2.5×10^4 cells) were plated in 96 well U-bottom plates with test compound or DMSO (0.1%), and incubated for 3 hours at 37° C. Cells were then harvested by centrifugation, lysed, and mRNA was isolated using the mRNA catcher plus kit (Invitrogen). Reverse transcription of the mRNA and duplex amplification of the c-myc and cyclophilin cDNAs was performed using the RNA Ultrasense kit (Invitrogen) and a ViiA7 real-time PCR machine (Applied Biosystems). IC50 values were determined from a dose response curve.
A general note: Quantitative PCR measures a nucleic acid by following its amplification.

Another data set has as its system Human AML MV-4-11 cells. As to the kind of experiment: Inhibition of cell proliferation in cancer cell lines (CellTiter Aqueous One). It is filed as cell-based. Set-up: key: Active: Compounds with an IC50 value less than 30 μM were deemed to be active.; Not Active: Compounds with an IC50 value less than 30 μM were deemed to be active. Conditions: 72 hours. How it is done: MV4-11 cells: 96-well plates were seeded with 5×10^4 cells per well of exponentially growing human AML MV-4-11 (CRL-9591) cells and immediately treated with two-fold dilutions of test compounds, ranging from 30 μM to 0.2 μM. Triplicate wells were used for each concentration, as well as a media only and three DMSO control wells. The cells and compounds were incubated at 37° C., 5% CO2 for 72 hours before adding 20 μL of the CellTiter Aqueous One Solution (Promega) to each well and incubating at 37° C., 5% CO2 for an additional 3-4 hours. The absorbance was taken at 490 nm in a spectrophotometer and the percentage of proliferation relative to DMSO-treated cells was calculated after correction from the blank well. IC50 were calculated using the GraphPad Prism software.

The next data set concerns hIL-6 mRNA. As to the kind of experiment: Inhibition of hIL-6 mRNA transcription in LPS-stimulated U937 macrophages. Set-up: key: Active: Compounds with an IC50 value less than 30 μM are deemed to be active. As to conditions: U937 differentiated into macrophages, 1 h pretreatment, lipopolysaccharide 3 h. It is filed as cell-based, human. How it is done:
In this example, hIL-6 mRNA in tissue culture cells was quantitated to measure the transcriptional inhibition of hIL-6 when treated with a compound of the present disclosure.
A human leukemic monocyte lymphoma cell line (U937) was plated (3.2×10^4 cells per well) in a 96-well plate in 100 μL RPMI-1640 containing 10% FBS and penicillin/streptomycin, and differentiated into macrophages for 3 days in 60 ng/mL PMA ([…]) at 37° C. in 5% CO2 prior to the addition of the compound of interest. The cells were pretreated for 1 h with the test compound prior to stimulation with […] lipopolysaccharide from Escherichia coli. The cells were incubated at 37° C. for 3 h before the cells were harvested. At time of harvest, the spent media was removed from the cells and the cells were rinsed in 200 μL PBS. Cell lysis solution (70 μL) was added the cells in each well and incubated for 5-10 min at room temperature, to allow for complete cell lysis and detachment. mRNA was then prepared using the “mRNA Catcher PLUS plate” (Invitrogen), according to the protocol supplied. After the last wash, as much wash buffer as possible was aspirated without allowing the wells to dry. Elution buffer (E3, 70 μL) was then added to each well. mRNA was then eluted by incubating the mRNA Catcher PLUS plate with Elution Buffer for 5 min at 68° C. and then immediately placing the plate on ice.
The eluted mRNA isolated was then used in a one-step quantitative real-time PCR reaction, using components of the Ultra Sense Kit together with Applied Biosystems primer-probe mixes. Real-time PCR data was analyzed, normalizing the Ct values for hIL-6 to an internal control, prior to determining the fold induction of each unknown sample, relative to the control.

A word on the melting point: it is the temperature, or range, at which the solid turns liquid.

The structures appear in SMILES notation.

The compound `CCS(=O)(=O)c1ccc(-c2nc(-c3nc4cc(OC)cc(OC)c4c(=O)[nH]3)ccc2OCCNC(C)C)cc1` [Example 35, 2-(6-(4-(Ethylsulfonyl)phenyl)-5-(2-(isopropylamino)ethoxy)pyridin-2-yl)-5,7-dimethoxyquinazolin-4(3H)-one] yielded a melting point of 195 to 197 °C. Further, the “FRET activity (IC50 < 30 μM)” value at Brd4 bromodomain 1 was “Active”. Moreover, the “c-myc activity (IC50 < 30 μM)” value in the data set on c-myc was “Active”. The “cell proliferation activity (IC50 < 30 μM)” value (shortened to “cell proliferation activity”) in the data set on Human AML MV-4-11 cells is recorded as “Active”. In addition, the “IL-6 activity (IC50 < 30 μM)” value in the data set with hIL-6 mRNA was “Not Active”.
Turning to `COc1cc(OC)c2c(=O)[nH]c(-c3cc(-c4ccc([S+](C)[O-])cc4)cs3)nc2c1` (centres unmarked) [Example 48, 5,7-Dimethoxy-2-(4-(4-(methylsulfinyl)phenyl)thiophen-2-yl)quinazolin-4(3H)-one], the melting point was > 300 °C. Moreover, the “FRET activity (IC50 < 30 μM)” value on Brd4 bromodomain 1 is recorded as “Not Active”. In addition, the “c-myc activity (IC50 < 30 μM)” value in the data set on c-myc is on record as “Not Active”. Also, in the data set with Human AML MV-4-11 cells, the “cell proliferation activity” value is listed as “Not Active”. Moreover, the “IL-6 activity (IC50 < 30 μM)” value with hIL-6 mRNA is listed as “Active”.
For `COc1cc(OC)c2c(=O)[nH]c(-c3cccc(-c4ccc([S+](C)[O-])s4)c3)nc2c1` (centres unmarked) [Example 51, 5,7-Dimethoxy-2-(3-(5-(methylsulfinyl)thiophen-2-yl)phenyl)quinazolin-4(3H)-one], the melting point is 289 to 290 °C. For the same compound, the “FRET activity (IC50 < 30 μM)” value on Brd4 bromodomain 1 is “Active”. The “c-myc activity (IC50 < 30 μM)” value in the data set on c-myc is listed as “Not Active”. Moreover, the “cell proliferation activity” value in the data set on Human AML MV-4-11 cells is “Not Active”. The “IL-6 activity (IC50 < 30 μM)” value in the data set on hIL-6 mRNA is on record as “Active”.
Turning to `COc1cc(OC)c2c(=O)[nH]c(-c3cc(-c4ccc([S+](C)[O-])cc4)c4[nH]ccc4c3)nc2c1` (centres unmarked) [Example 52, 5,7-Dimethoxy-2-(7-(4-(methylsulfinyl)phenyl)-1H-indol-5-yl)quinazolin-4(3H)-one], the melting point is 316 °C (dec.). In addition, on Brd4 bromodomain 1, the “FRET activity (IC50 < 30 μM)” value was “Active”. In the data set with c-myc, the “c-myc activity (IC50 < 30 μM)” value is “Not Active”. Also, the “cell proliferation activity” value with Human AML MV-4-11 cells was “Not Active”. In addition, in the data set with hIL-6 mRNA, the “IL-6 activity (IC50 < 30 μM)” value was “Active”.
In turn, `COc1cc(OC)c2c(=O)[nH]c(-c3ccc(OC)c(-c4ccc(C(=O)N(C)C)cc4C)n3)nc2c1` [Example 54, 4-(6-(5,7-Dimethoxy-4-oxo-3,4-dihydroquinazolin-2-yl)-3-methoxypyridin-2-yl)-N,N,3-trimethylbenzamide] had a melting point of 248 to 251 °C. Besides, the “FRET activity (IC50 < 30 μM)” value on Brd4 bromodomain 1 was “Active”. In addition, in the data set on c-myc, the “c-myc activity (IC50 < 30 μM)” value is given as “Not Active”. The “cell proliferation activity” value with Human AML MV-4-11 cells is reported as “Not Active”. For the same compound, in the data set on hIL-6 mRNA, the “IL-6 activity (IC50 < 30 μM)” value was “Active”.
With `COc1cc(OC)c2c(=O)[nH]c(-c3ccc(OC)c(-c4ccc(C(=O)N(C)C)cc4Cl)n3)nc2c1` [Example 56, 3-Chloro-4-(6-(5,7-dimethoxy-4-oxo-3,4-dihydroquinazolin-2-yl)-3-methoxypyridin-2-yl)-N,N-dimethylbenzamide], the melting point lay in the range of 271 to 272 °C. Also, at Brd4 bromodomain 1, the “FRET activity (IC50 < 30 μM)” value was “Not Active”. Further, the “c-myc activity (IC50 < 30 μM)” value in the data set on c-myc is listed as “Not Active”. Besides, the “cell proliferation activity” value in the data set with Human AML MV-4-11 cells is reported as “Not Active”. For the same compound, the “IL-6 activity (IC50 < 30 μM)” value in the data set with hIL-6 mRNA is reported as “Active”.
Compound `COc1ccc(-c2nc3cccc(OC)c3c(=O)[nH]2)nc1-c1ccc([S+](C)[O-])cc1` (centres unmarked) [Example 57, 5-Methoxy-2-(5-methoxy-6-(4-(methylsulfinyl)phenyl)pyridin-2-yl)quinazolin-4(3H)-one] returned a melting point of 308 to 310 °C. Besides, on Brd4 bromodomain 1, the “FRET activity (IC50 < 30 μM)” value was “Active”. Further, the “c-myc activity (IC50 < 30 μM)” value in the data set on c-myc was “Not Active”. For the same compound, the “cell proliferation activity” value with Human AML MV-4-11 cells was “Not Active”. Also, in the data set with hIL-6 mRNA, the “IL-6 activity (IC50 < 30 μM)” value is recorded as “Active”.

Values taken from patent publication US9765039B2, “Biaryl derivatives as bromodomain inhibitors” (Zenith Epigenetics Ltd., priority 2012, dated 2017).
